This is an account of results in EP2727916A1, “Neuroprotective multi-target directed drugs” (Universitat Autònoma de Barcelona, priority 2012, dated 2014).

SMILES strings stand for the structures. Read-outs that look alike come from different tables or passages of the source.

One assay concerns the target T1, bovine lung SSAO (Bos taurus, UniProt Q9TTK6).
T1 construct: and bovine lung SSAO by compounds of the invention; from tissue; host or cells: bovine lung
T1 sequence (Q9TTK6 1-763): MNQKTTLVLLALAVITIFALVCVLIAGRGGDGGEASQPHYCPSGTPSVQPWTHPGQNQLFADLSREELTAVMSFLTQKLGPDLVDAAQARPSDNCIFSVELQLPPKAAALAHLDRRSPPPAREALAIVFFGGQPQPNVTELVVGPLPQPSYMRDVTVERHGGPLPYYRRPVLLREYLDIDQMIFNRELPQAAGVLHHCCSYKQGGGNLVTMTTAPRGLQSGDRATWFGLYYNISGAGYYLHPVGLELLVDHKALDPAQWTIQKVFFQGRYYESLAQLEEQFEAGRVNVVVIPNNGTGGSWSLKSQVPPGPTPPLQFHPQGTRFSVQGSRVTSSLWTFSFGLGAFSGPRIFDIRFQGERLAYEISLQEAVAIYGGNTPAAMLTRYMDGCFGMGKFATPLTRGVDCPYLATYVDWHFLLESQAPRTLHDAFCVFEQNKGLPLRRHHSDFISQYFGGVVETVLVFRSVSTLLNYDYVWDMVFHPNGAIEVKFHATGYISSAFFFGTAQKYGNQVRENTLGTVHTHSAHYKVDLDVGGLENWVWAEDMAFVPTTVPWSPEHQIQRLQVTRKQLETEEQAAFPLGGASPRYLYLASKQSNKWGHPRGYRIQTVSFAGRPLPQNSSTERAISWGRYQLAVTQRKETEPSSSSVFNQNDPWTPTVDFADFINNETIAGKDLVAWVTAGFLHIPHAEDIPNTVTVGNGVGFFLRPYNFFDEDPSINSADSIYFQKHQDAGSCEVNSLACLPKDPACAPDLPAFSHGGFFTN
Kind of assay: Inhibition of semicarbazide sensitive amine oxidase (SSAO), radiochemical. It is filed as biochemical. The settings on record: bovine lung SSAO; mean ± standard error of the mean; read-out: IC50 bovineSSAO.

In assay [1] the target is T2, ratMAO-B (Rattus norvegicus, UniProt P19643).
T2 sequence (P19643 1-520): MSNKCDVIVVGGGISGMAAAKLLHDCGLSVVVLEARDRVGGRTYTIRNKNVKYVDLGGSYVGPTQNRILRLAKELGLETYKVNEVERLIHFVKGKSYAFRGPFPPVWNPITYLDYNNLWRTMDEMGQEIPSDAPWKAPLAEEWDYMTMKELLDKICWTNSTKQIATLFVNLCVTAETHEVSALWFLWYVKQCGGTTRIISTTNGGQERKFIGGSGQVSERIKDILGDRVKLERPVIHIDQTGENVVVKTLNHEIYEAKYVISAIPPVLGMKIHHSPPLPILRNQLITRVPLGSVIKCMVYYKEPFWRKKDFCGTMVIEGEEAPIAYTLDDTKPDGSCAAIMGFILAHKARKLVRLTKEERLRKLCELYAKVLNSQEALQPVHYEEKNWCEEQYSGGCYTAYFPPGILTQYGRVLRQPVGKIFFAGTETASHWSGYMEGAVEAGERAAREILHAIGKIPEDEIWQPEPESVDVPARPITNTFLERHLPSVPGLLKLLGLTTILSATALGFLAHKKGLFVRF
Description: MAO-B inhibition, radiometric method of Fowler and Tipton (14C PEA). Further details: MAO-A and MAO-B activities were determined in rat brain homogenate; from tissue; host or cells: rat brain homogenate per the methods. The class given is biochemical. The settings on record: for IC50: 30 min pre-incubation at 37 °C, 20 µM PEA, mean ± standard error of the mean.

Assay [2] deals with T3, electrophorus electricus acetylcholinesterase (eeAChE) (Electrophorus electricus, UniProt O42275). Description: biochemical. It is filed as biochemical. The settings on record: 20 minutes incubation at 37°C; mean ± standard error of the mean; read-out: IC50 EeAChE.
In assay [3] the target is T4, equine serum butyrylcholinesterase (eqBuChE) (Equus caballus, UniProt P81908). Kind of assay: biochemical. The class given is biochemical.
For assay [4], the target named is T5, ratMAO-A (Rattus norvegicus, UniProt P21396).
T5 sequence (P21396 1-526): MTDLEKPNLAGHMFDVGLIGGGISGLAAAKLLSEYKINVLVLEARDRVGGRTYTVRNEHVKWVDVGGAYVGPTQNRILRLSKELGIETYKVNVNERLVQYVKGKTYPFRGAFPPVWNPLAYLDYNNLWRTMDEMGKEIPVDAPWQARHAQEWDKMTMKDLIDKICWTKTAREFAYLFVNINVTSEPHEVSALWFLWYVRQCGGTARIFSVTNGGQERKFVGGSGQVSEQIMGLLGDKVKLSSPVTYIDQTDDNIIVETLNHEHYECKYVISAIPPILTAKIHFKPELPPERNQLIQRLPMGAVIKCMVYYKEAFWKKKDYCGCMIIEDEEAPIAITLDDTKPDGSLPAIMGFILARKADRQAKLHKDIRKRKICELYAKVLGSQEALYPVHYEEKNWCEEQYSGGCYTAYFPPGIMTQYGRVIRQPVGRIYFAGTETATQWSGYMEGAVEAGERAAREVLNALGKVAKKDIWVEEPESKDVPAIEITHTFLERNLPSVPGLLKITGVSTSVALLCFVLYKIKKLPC
Kind of assay: MAO-A inhibition, radiometric method of Fowler and Tipton (14C 5-HT). The class given is biochemical. The arrangement: MAO-A and MAO-B activities were determined in rat brain homogenate; from tissue; host or cells: rat brain homogenate per the methods. The settings on record: 30 min pre-incubation at 37 °C; 100µM 5-HT; mean ± standard error of the mean.

Assay [5] deals with T2, ratMAO-B. The arrangement: MAO-A and MAO-B activities were determined in rat brain homogenate; from tissue; host or cells: rat brain homogenate per the methods. The settings on record: reference value, footnote (a) Zheng et al. 2010; cited from earlier work.
The target of assay [6] is T5, ratMAO-A. The arrangement: MAO-A and MAO-B activities were determined in rat brain homogenate; from tissue; host or cells: rat brain homogenate per the methods. The settings on record: reference value, footnote (a) Zheng et al. 2010; cited from earlier work.
The target in assay [7] is T4, equine serum butyrylcholinesterase (eqBuChE). The settings on record: reference value, footnote (a) Zheng et al. 2010; cited from earlier work.
In assay [8] the target is T3, electrophorus electricus acetylcholinesterase (eeAChE). The following applies: reference value, footnote (a) Zheng et al. 2010; cited from earlier work.
The mark [9] stands for this setting: 20 minutes incubation at 37°C, mean ± standard error of the mean, read-out: IC50 eqBuChE.

T4 sequence (P81908 whole entry): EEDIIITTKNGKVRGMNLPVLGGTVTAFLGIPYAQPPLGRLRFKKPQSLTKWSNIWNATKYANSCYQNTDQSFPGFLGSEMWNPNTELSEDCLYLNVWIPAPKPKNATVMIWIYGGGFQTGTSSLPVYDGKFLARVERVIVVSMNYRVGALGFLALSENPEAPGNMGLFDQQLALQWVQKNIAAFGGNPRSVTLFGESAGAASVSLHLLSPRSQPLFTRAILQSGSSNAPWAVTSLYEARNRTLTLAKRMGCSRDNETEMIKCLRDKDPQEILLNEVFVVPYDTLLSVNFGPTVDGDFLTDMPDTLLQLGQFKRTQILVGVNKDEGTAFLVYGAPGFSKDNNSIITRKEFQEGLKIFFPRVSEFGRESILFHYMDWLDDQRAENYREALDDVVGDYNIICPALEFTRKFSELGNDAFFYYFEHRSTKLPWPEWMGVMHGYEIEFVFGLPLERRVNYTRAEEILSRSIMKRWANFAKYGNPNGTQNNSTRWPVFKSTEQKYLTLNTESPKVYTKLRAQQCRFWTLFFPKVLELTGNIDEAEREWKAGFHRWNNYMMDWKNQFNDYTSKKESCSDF
T3 sequence (O42275 24-633): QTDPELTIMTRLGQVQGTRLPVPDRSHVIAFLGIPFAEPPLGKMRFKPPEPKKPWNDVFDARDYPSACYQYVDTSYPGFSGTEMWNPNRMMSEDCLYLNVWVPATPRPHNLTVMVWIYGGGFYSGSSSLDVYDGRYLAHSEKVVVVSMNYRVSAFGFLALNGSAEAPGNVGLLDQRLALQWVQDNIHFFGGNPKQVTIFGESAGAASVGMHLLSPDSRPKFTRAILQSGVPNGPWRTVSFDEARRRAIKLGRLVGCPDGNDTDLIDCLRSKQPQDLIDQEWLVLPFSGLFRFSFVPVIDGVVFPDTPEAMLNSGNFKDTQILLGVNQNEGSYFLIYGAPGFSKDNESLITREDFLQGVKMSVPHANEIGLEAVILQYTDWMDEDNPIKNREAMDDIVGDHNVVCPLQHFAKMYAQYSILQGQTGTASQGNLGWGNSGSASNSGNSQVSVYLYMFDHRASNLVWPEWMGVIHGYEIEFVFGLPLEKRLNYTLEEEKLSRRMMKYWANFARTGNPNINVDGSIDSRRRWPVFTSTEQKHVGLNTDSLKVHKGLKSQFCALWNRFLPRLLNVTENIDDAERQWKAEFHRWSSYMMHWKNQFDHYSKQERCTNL

As to `C#CCN(Cc1ccc(O)c2ncccc12)C(C#N)C1CCN(Cc2ccccc2)CC1` (centres unmarked) [Compound 2, 2-(1-benzylpiperidin-4-yl)-2-(((8-hydroxyquinolin-5-yl)methyl)(prop-2-ynyl)amino)acetonitrile], the IC50 at bovine lung SSAO is 18 ± 5 µM; on ratMAO-B [1] it was 39.5 ± 1.4 µM; in assay [2], 14.5 ± 3.7 µM; in assay [3] (setting [9]), 13.5 ± 1.8 µM; against ratMAO-A [4], 22.1 ± 0.7 µM. Also, the “MAO-B/ MAO-A” value at ratMAO-B [1] came to 1.7. Besides, the “BuChE/ AChE” value in assay [3] (ratio of IC50 values) is reported as 0.92.

With `C#CCN(Cc1ccc(O)c2ncccc12)CC1CCN(Cc2ccccc2)CC1` [Compound 3, 5-((((1-benzylpiperidin-4-yl)methyl)(prop-2-ynyl)amino)methyl)quinolin-8-ol], the IC50 on bovine lung SSAO was at least 100 µM; against ratMAO-B [1], 19.4 ± 3.2 µM; in assay [2] it was 17 ± 4.7 µM; in assay [3] (setting [9]) it was 12.8 ± 1.4 µM; against ratMAO-A [4], 85.4 ± 3.7 µM. Also, the “MAO-B/ MAO-A” value at ratMAO-B [1] (ratio of IC50 values) is listed as 0.22. Further, the “BuChE/ AChE” value in assay [3] (ratio of IC50 values) is 0.75.

Turning to `C#CCN(Cc1ccc(O)c2ncccc12)C(C#N)CC1CCN(Cc2ccccc2)CC1` (centres unmarked) [Compound 4, 3-(1-benzylpiperidin-4-yl)-2-(((8-hydroxyquinolin-5-yl)methyl)(prop-2-ynyl)amino)propanenitrile], the IC50 stood at 2.79 ± 0.7 µM at bovine lung SSAO; 12.4 ± 2.5 µM against ratMAO-B [1]; 5.53 ± 0.5 µM in assay [2]; 6.06 ± 0.6 µM in assay [3]; 9.67 ± 1.5 µM on ratMAO-A [4]. Further, at ratMAO-B [1], the “MAO-B/ MAO-A” value is reported as 1.2. In addition, the “BuChE/ AChE” value in [3] is given as 1.1.

On to `C#CCN(CCC1CCN(Cc2ccccc2)CC1)Cc1ccc(O)c2ncccc12` [Compound 5, 5-(((2-(1-benzylpiperidin-4-yl)ethyl)(prop-2-ynyl)amino)methyl)quinolin-8-ol], for which the IC50 at bovine lung SSAO is 39.7 ± 16 µM; against ratMAO-B [1] it was 50.08 ± 0.5 µM; in [2], 5.01 ± 0.8 µM; in assay [3] (setting [9]), 14.5 ± 3.6 µM; against ratMAO-A [4] it was at least 100 µM. In addition, the “MAO-B/ MAO-A” value at ratMAO-B [1] (ratio of IC50 values) is on record as at least 0.5. Besides, the “BuChE/ AChE” value in assay [3] (ratio of IC50 values) is 2.8.

Take `C#CCN(CCCC1CCN(Cc2ccccc2)CC1)Cc1ccc(O)c2ncccc12` [Compound 7, 5-(((3-(1-benzylpiperidin-4-yl)propyl)(prop-2-ynyl)amino)methyl)quinolin-8-ol]: the IC50 on bovine lung SSAO is 61.1 ± 21.4 µM; at ratMAO-B [1] it was 34.5 ± 3.5 µM; in assay [2], 2.67 ± 0.4 µM; in [3] (setting [9]), 4.52 ± 0.3 µM; at ratMAO-A [4] it was at least 100 µM. On ratMAO-B [1] (ratio of IC50 values), the “MAO-B/ MAO-A” value was at least 0.34. In addition, in assay [3] (ratio of IC50 values), the “BuChE/ AChE” value was 1.6.

For `C#CCN(C)Cc1ccc(O)c2ncccc12` [Compound M-30], the IC50 on ratMAO-B [5] is 0.057 ± 0.02 µM; at ratMAO-A [6], 0.037 ± 0.02 µM; in assay [7], at least 100 µM; in [8] it was 114 ± 14.1 µM. In addition, at ratMAO-B [1], the “MAO-B/ MAO-A” value is 1.5. Also, the “IC50 eqBuChE” value in [7] was “inactive”.

As usually defined, the IC50 is the midpoint of a concentration-inhibition curve.
